# From US10512631B2, “Chalcone compounds” (Beth Israel Deaconess Medical Center, Inc., priority 2015, dated 2019)
# Assays:
# Assay type in all cases: cell-based
# [1] = tested on: PC3 cells transfected with siRNA against STMN1; assay: Crystal violet staining of PC3 cells transfected with siRNA against STMN1; conditions: siRNA STMN1 vs control siRNA; 1 μM Compound 6, 1 μM Compound 7, 0.1 μM Compound 8, 72 hours
# Protocol: (§1) Cells were seeded at 5×10^3 concentration in 96 well plates and treated with test compounds or DMSO (0.001-10 μM) for 72 hours. Culture medium was removed and cells were stained with crystal violet solution (Sigma-Aldrich) for 15 minutes while shaking at room temperature. Crystal violet was then removed and cells were repeatedly washed in water. Attached cells stained with crystal violet were dried and then resuspended in 10% acetic acid. Absorbance was measured at 562 nm. The intensity of staining corresponded directly to the number of live cells.
# siRNA against STMN1 and scramble siRNA were obtained from Darmacon (ONTARGET plus siRNA). PC3 cells were transiently transfected with siRNA against STMN1 or scramble siRNA using Lipofectamine 2000 (Invitrogen) as previously described in Wegiel et al., J. Biol. Chem. 2009, 7; 284(32):21369-78. Twenty four hours post-transfection, cells were split to 96 well plates and treated with test compounds for 72 hours. STMN1 levels were measured by immunoblotting to confirm successful knockdown.
# PC3 = assay: Cytoxicity / crystal violet staining, PC3; conditions: average of triplicates, % of apoptotic cells vs DMSO controls, N.A. = not active at 10 μM
# Protocol: PC3 (provided by Dr. Steven Balk's laboratory in Department of Medicine at Beth Israel Deaconess Medical Center), PANC02 and CRL2119 (provided by Dr. Pankaja Seth's laboratory in Department of Medicine at Beth Israel Deaconess Medical Center), A549 (ATCC) cell lines were cultured according to manufacturer's protocols. Briefly, PC3 were cultured in RPMI medium supplemented with 10% FBS (Atlanta). PANC-2, A549 and CRL2119 were cultured in DMEM High medium supplemented with 10% FBS (Atlanta). Human bronchial epithelial cells (BEC) were cultured in Airway Epithelial Cell Basal Medium with the Bronchial Epithelial cell growth kit (ATCC) according to manufacturer's protocol and used at passages 3-5.
# as §1
# A549 cells = assay: Invasion chambers (Transwell, Matrigel); conditions: serum chemoattractants, compared to untreated cells
# Protocol: The invasion of A549 cells was measured using Transwell chambers (Chemicon, Millipore, Calif.) according to the manufacturer's protocol. Briefly, A549 cells were treated with test compounds at 1 μM in 500 μl of DMEM medium without FBS for 24 hours. Medium in the upper chamber was serum-free while medium in the lower chamber contained 10% FBS as a source of chemoattractants. Cells that passed through the Matrigel-coated membrane were stained and photographed after 24 hours of incubation. Absorbance was measured at 562 nm by ELISA reader after dissolving of stained cells in 10% acetic acid.
structure (smiles),measurement,setting,value
"Cn1ccc2cc(/C=C3\CCc4ccc(F)cc4C3=O)ccc21 [Compound 6, (2E)-7-fluoro-2-[(1-methyl-1H-indol-5-yl)methylidene]-1,2,3,4-tetrahydronaphthalen-1-one]",cell death in response to compound in the absence of STMN1,[1],attenuated in the absence of STMN1
same,Cytoxicity (% cell killing at 10 μM) PC3,PC3,49%
same,invasion / migration through matrigel coated chambers,A549 cells,strongly inhibited invasion
